Literature values as cited in patent US20050202550A1, “Crystal structure of 3', 5'-cyclic nucleotide phosphodiesterase (PDE10A) and uses thereof” (Pfizer Inc, priority 2004, published 2005).

Target: T1, PDE10 (Mus musculus, UniProt Q8CA95)
T1 sequence (Q8CA95 1-779 isoform Q8CA95-2): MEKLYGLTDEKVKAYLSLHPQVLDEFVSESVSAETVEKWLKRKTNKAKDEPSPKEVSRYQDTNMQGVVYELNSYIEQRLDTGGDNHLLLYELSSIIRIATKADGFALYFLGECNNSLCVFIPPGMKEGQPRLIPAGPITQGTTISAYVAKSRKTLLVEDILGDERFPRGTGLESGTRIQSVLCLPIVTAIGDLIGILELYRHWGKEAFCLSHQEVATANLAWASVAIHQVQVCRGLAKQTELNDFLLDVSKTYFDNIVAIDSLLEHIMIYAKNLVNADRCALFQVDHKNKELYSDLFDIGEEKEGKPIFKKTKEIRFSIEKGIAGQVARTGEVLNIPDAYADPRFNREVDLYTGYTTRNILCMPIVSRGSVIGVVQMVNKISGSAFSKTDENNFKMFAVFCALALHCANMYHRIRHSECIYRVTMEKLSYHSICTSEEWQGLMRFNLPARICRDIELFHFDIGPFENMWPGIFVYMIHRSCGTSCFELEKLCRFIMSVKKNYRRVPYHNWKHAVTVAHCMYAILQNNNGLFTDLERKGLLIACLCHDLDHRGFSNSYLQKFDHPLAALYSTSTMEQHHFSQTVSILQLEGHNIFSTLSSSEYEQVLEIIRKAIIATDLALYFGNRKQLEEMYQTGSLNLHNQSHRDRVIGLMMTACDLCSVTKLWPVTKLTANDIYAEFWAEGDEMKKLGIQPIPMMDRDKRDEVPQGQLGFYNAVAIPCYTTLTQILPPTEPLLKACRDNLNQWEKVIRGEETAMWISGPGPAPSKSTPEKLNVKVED
Details: mouse PDE10A1

Vmax for cGMP over cAMP (ratio of Vmax cGMP to cAMP): approximately 5 fold
Km (substrate, read-out: Km (affinity of the PDE10 for substrate)): 3 µM
Compound: Nc1nc2c(ncn2[C@@H]2O[C@@H]3COP(=O)(O)O[C@H]3[C@H]2O)c(=O)[nH]1 [cGMP]
